From patent publication US3997527A, “Aminomethylarylmethylpenicillin derivatives” (Pfizer Inc., priority 1976, dated 1976)
≈ marks a conversion by molar mass, not a printed value.

Key:
Assay type in all cases: cell-based
[1] = system: S. aureus 01A005; experiment: In vitro antibacterial activity (MIC), S. aureus 01A005; conditions: Staphylococcus aureus, nutrient broth
Text: (§1) As has been previously mentioned, the penicillins of the present invention are broad spectrum antibiotics which are, unlike many penicillin analogs, highly antagonistic toward gram-negative microorganisms, in particular E. coli and Klebsiella. This unusual activity against certain gram-negative organisms may be attributed to the positioning of the aminomethyl substituent adjacent to the linking amide moiety. The marked effectiveness of this positioning can be readily seen in an antibacterial comparison of 6-(o-aminomethylphenylacetamido)penicillanic acid (o-AMP), a preferred compound of the present invention and 6-(p-aminomethylphenylacetamido)penicillanic acid (p-AMP), a compound of the previously-mentioned British Pat. 1,057,029.

[2] = system: S. aureus 01A052; experiment: In vitro antibacterial activity (MIC), S. aureus 01A052; conditions: Staphylococcus aureus, nutrient broth
Text: as §1

[3] = system: S. pyogenes 020803; experiment: In vitro antibacterial activity (MIC), S. pyogenes 020803; conditions: Streptococcus pyogenes, nutrient broth
Text: as §1

[4] = system: E. coli 51A002; experiment: In vitro antibacterial activity (MIC), E. coli 51A002; conditions: Escherichia coli, nutrient broth
Text: as §1

[5] = system: E. coli 51A215; experiment: In vitro antibacterial activity (MIC), E. coli 51A215; conditions: Escherichia coli, nutrient broth
Text: as §1

[6] = system: E. coli 51A266; experiment: In vitro antibacterial activity (MIC), E. coli 51A266; conditions: Escherichia coli, nutrient broth
Text: as §1

[7] = system: Kleb. pneumoniae 53A009; experiment: In vitro antibacterial activity (MIC), Kleb. pneumoniae 53A009; conditions: Klebsiella pneumoniae, nutrient broth
Text: as §1

[8] = system: Salm. typhm. 530013; experiment: In vitro antibacterial activity (MIC), Salm. typhm. 530013; conditions: nutrient broth
Text: as §1

[9] = system: Past. mult. 59A001; experiment: In vitro antibacterial activity (MIC), Past. mult. 59A001; conditions: nutrient broth
Text: as §1

[10] = system: Entero. aero. 55A004; experiment: In vitro antibacterial activity (MIC), Entero. aero. 55A004; conditions: nutrient broth
Text: as §1

| Compound | MIC [1] [µg/mL] | MIC [2] [µg/mL] | MIC [3] [µg/mL] | MIC [4] [µg/mL] | MIC [5] [µg/mL] | MIC [6] [µg/mL] | MIC [7] [µg/mL] | MIC [8] [µg/mL] | MIC [9] [µg/mL] | MIC [10] [µg/mL] |
| --- | --- | --- | --- | --- | --- | --- | --- | --- | --- | --- |
| CC1(C)S[C@@H]2C(NC(=O)Cc3ccccc3CN)C(=O)N2[C@H]1C(=O)O (some centres unmarked) [o-AMP, 6-(o-aminomethylphenylacetamido)penicillanic acid] | 0.2 (≈ 0.55 µM) | 1.56 (≈ 4.29 µM) | < 0.1 | 200 (≈ 550 µM) | 6.25 (≈ 17.2 µM) | 3.12 (≈ 8.58 µM) | 3.12 (≈ 8.58 µM) | 3.12 (≈ 8.58 µM) | 0.2 (≈ 0.55 µM) | 1.56 (≈ 4.29 µM) |
| CC1(C)S[C@@H]2C(NC(=O)Cc3ccc(CN)cc3)C(=O)N2[C@H]1C(=O)O (some centres unmarked) [p-AMP, 6-(p-aminomethylphenylacetamido)penicillanic acid] | 200 (≈ 550 µM) | 200 (≈ 550 µM) | 0.39 (≈ 1.07 µM) | > 200 | 6.25 (≈ 17.2 µM) | 50 (≈ 138 µM) | 50 (≈ 138 µM) | 12.5 (≈ 34.4 µM) | 0.39 (≈ 1.07 µM) | > 200 |
